{"source": "patent US11760784B2", "about": "“Compositions comprising PEDF-derived short peptides and uses thereof” (BRIM Biotechnology, Inc., priority 2016, dated 2023)", "key": {"[1]": {"tested_on": "TNF-α mRNA", "test": "Ocular TNF-α mRNA by quantitative real-time PCR in CEC dry eye mice", "format": "in vivo, C57BL6 mice", "details": "CEC 14 days, then topical PDSP for 5 days", "procedure": "Dry eye is associated with abnormalities in the pre-corneal tear film and subsequent inflammatory changes in the entire ocular surface including the adnexa, conjunctiva and cornea. (see, Hessen et al., “Dry eye: An Inflammatory Ocular Disease,” J. Ophthalmic Vis. Res., 2014, 9(2): 240-250). Therefore, the effects of PDSPs in corneal inflammatory responses were next examined. Briefly, C57BL6 mice were housed in CEC for 14 days (Day 0) and then treatment with PDSP or vehicle were performed for additional 5 days (Day 5). Then, mRNA levels for inflammatory factors were evaluated by quantitative real-time PCR.\nThe total RNA was extracted from cells using TRIzol (Invitrogen) and treated with RNase free DNase I (Qiagen, Santa Clarita, CA) to remove genomic DNA and then purified with an RNA purification kit (Dynabeads; Invitrogen). […] Quantitative real-time PCR was performed in a GeneAmp 7700 sequence detection system (Applied Biosystems, Foster City, CA). […] All determinations were measured in triplicate. The cycle threshold (Ct) values corresponded to the PCR cycle number at which fluorescence emission in real time reaches a threshold above the base-line emission were analyzed using GeneAmp 7700 SDS software. The Ct value of the PCR product of interest and a control mRNA (GAPDH) were then used to calculate relative quantities of mRNA between samples."}, "[2]": {"tested_on": "desiccating stress-induced dry eye", "test": "Corneal fluorescein staining in desiccating stress-induced dry eye (CEC) mice", "format": "in vivo, C57BL/6 mice", "details": "CEC 14 days, then peptide for 3 days (FIG. 11)"}, "[3]": {"tested_on": "MMP-9 mRNA", "test": "MMP-9 mRNA by quantitative real-time PCR in NaCl-treated corneal epithelial cells", "format": "cell-based, rabbit", "procedure": "Therefore, we also examined the effects of PDSP on the MMP-9 mRNA expression and activity in NaCl-treated rabbit corneal epithelial cells. Briefly, rabbit corneal epithelial cells were treated as described above. […] Hyperosmotic stress induced a substantial (about 2-fold) increase in MMP-9 mRNA level (Negative control peptide, ConP, followed by NaCl treatment). […] The increases in MMP-9 mRNA levels substantially correlate with the expression of the MMP-9 protein as measured with SDS-gel and enzymatic activities, as shown in FIG. 7(B).\nThe total RNA was extracted from cells using TRIzol (Invitrogen) and treated with RNase free DNase I (Qiagen, Santa Clarita, CA) to remove genomic DNA and then purified with an RNA purification kit (Dynabeads; Invitrogen). Synthesis of cDNA was performed by Superscript III (Invitrogen). Quantitative real-time PCR was performed in a GeneAmp 7700 sequence detection system (Applied Biosystems, Foster City, CA). […] All determinations were measured in triplicate. The cycle threshold (Ct) values corresponded to the PCR cycle number at which fluorescence emission in real time reaches a threshold above the base-line emission were analyzed using GeneAmp 7700 SDS software. The Ct value of the PCR product of interest and a control mRNA (GAPDH) were then used to calculate relative quantities of mRNA between samples. […]"}}}
{"substance": "PDSP: 29mer, residues 93-121 of human PEDF: SLGAEQRTESIIHRALYYDLISSPDIHGT (SEQ ID NO:4) (listed as Homo sapiens)", "values": [{"measurement": "repression of ocular TNF-α mRNA expression compared to vehicle-treated group", "setting": "[1]", "value": 1.9, "unit": "fold"}, {"measurement": "corneal damage by corneal fluorescein staining, human vs mouse 29mer", "setting": "[2]", "value": "protection from corneal surface damages"}, {"measurement": "corneal damage by corneal fluorescein staining, human vs mouse 29mer", "setting": "[2]; listed as human PDSP", "value": "capable of restore the ocular surface damages"}, {"measurement": "MMP-9 mRNA levels without hyperosmotic stress (peptide alone)", "setting": "[3]; PDSP alone, isotonic medium", "value": "did not have effect"}, {"measurement": "repression of MMP-9 mRNA expression", "setting": "[3]; PDSP pretreatment 20 hours, then hyperosmotic medium (463 mOsM) 24 hours", "value": 2, "unit": "fold"}]}
